US6667336B2, “GlyT-1 inhibitors” (NPS Allelix Corp., priority 2002, dated 2003)
Where “and” joins values, the source holds several entries; their conditions need not be identical. Equal values may be shown once.

test system: male CD-1 mice; experiment: 5 day chronic oral dosing toxicity study in mice (clinical signs); assay type: in vivo; set-up: key to Clinical signs (observation code), Day 1, 24 hours / Clinical signs (observation code), Day 2, 24 hours / Clinical signs (observation code), Day 3, 24 hours / Clinical signs (observation code), Day 4, 24 hours / Clinical signs (observation code), Day 5, 24 hours / Clinical signs (observation code), Day 1, 4 hours / Clinical signs (observation code), Day 2, 4 hours / Clinical signs (observation code), Day 3, 4 hours / Clinical signs (observation code), Day 4, 4 hours / Clinical signs (observation code), Day 5, 4 hours: 0: Appeared Normal; 1: Activity (inc./dec.); 2: Sedation/Lethargy; 3: Piloerection; 4: Stereotypy; 5: Soft Stool; 6: Chromodacryorrhea; 7: Epistaxis; 8: Cyanosis; 9: Flaccidity; 10: Respiration; 11: Hunched Posture; 12: Enophthalmia; 13: Exophthalmia; 14: Palpabral Ptosis; 15: Loss of Righting; 16: Chromaturia; 17: Salivation; 18: Lacrimation; 19: Miosis; 20: Mydriasis; 21: Rigidity; 22: Ataxia; 23: Tremors; 24: Convulsions; 25: Catalepsy; 26: Lateral Recumbency; 27: Death; conditions: 40 mg/kg/day PO, male CD-1 mice, one line per animal
Description: This example illustrated a 5 day chronic oral dosing toxicity study with GlyT1 inhibitors. […] Behavioral observations (clinical signs) and body weights were recorded daily for all compounds tested. Male CD-1 mice were purchased from Charles River Labs (Kingston, N.Y.). The animals weighed between 20-25 grams upon arrival. Animals were acclimatized in a temperature/humidity (72° ±5° F./50%±5%) controlled vivarium, with a common 12 hour light/dark cycle (Lights on 0700 hrs) for 5 days prior to test. All animals were allowed food (Purina Labdiete® Rodent chow # 5001) and water (supplied by Elizabethtown Water Company) ad libitum during the acclimation period and throughout the study. On the day prior to test initiation animals were randomly assigned to groups: All animals chosen for test weighed at least 20 grams and appeared in good condition. Each animal was dosed once daily for 5 days. Animals remained on site for a 3 day recovery period following the chronic dosing period.
A stock concentration of each test compound was prepared fresh on the day of study initiation. Aliquots were diluted to the needed concentrations for daily dosing. Stock solutions were kept in a refrigerator when not in use. Each compound was dissolved in a small amount of distilled water. One equivalent of sodium hydroxide (2 N) may have been added to aid in dissolution of each test agent. Vehicle was then added quantum sufficiat to give the final volume. Final volumes were adjusted to reflect percent free base when appropriate. The vehicle used in this experiment was Hydroxypropyl-β-cyclodextrine (HPCD) Acros, lot 011849601, dissolved in distilled water to form a 10% weight/volume concentration. The pH was adjusted, using sodium hydroxide (2 N), to equal that of the test agents (usually between 8 to 10). All prepared test compounds were either in solution, and clear, or in suspension, and slightly cloudy. Suspensions were mixed immediately prior to use.
All animals were administered either test compound or vehicle Per Os (PO) via 21 gauge gavage needles, in volumes of 10.0 ml/kg. Daily body weights were used to determine individual dosing volumes. All test compounds were weighed on a Denver Instruments analytical balance (model # A-250). Animals were weighed on a top loading Ohaus portable balance model # LS2000.
Animals were assessed for overt behaviors (clinical signs) immediately following administration of test agents, then again at 4 and 24 hours. Animals were assessed for 27 separate clinical signs:
Toxicity data obtained through the assay as described above is provided in Tables 1 to 14 for Compounds Gi to Gxiv inclusive. The animals were observed immediately following administration and again at 4 hours and 24 hours. Observations are reported using the code number from the following chart: […]

Row | SMILES | Clinical signs (observation code), Day 1, 4 hours | Clinical signs (observation code), Day 1, 24 hours | Clinical signs (observation code), Day 2, 4 hours | Clinical signs (observation code), Day 2, 24 hours | Clinical signs (observation code), Day 3, 4 hours | Clinical signs (observation code), Day 3, 24 hours | Clinical signs (observation code), Day 4, 4 hours | Clinical signs (observation code), Day 4, 24 hours | Clinical signs (observation code), Day 5, 4 hours | Clinical signs (observation code), Day 5, 24 hours
1 | COc1cccc(-c2ccc(/C(=C/CN(C)CC(=O)O)c3ccsc3)cc2)c1 [Compound G(v), (Z)-N-(1-(4-(3-Methoxyphenyl)phenyl)-1-(3-thienyl)prop-1-en-3-yl)sarcosine] | 0 | 0 | 0 | 0 | 0 | 0 | 0 | 0 | 0 | 0
2 | CN(C/C=C(/c1ccc(-c2cccs2)cc1)c1ccsc1)CC(=O)O [Compound G(iii), (Z)-N-(1-(4-(2-Thienyl)phenyl)-1-(3-thienyl)prop-1-en-3-yl)sarcosine] | 0 | 0 | 0 | 0 | 0 | 0 | 14 and 0 | 0 | 0 | 0
3 | Cc1cccc(-c2ccc(/C(=C/CN(C)CC(=O)O)c3ccsc3)cc2)c1 [Compound G(vi), (Z)-N-(1-(4-(3-Methylphenyl)phenyl)-1-(3-thienyl)prop-1-en-3-yl)sarcosine] | 0 | 0 | 0 | 0 | 0 | 0 | 0 | 0 | 0 | 0
4 | COc1cccc(-c2ccc(/C(=C/CN(C)CC(=O)O)c3cscc3C)cc2)c1 [Compound G(xii), (Z)-N-(1-(4-(3-Methoxyphenyl)phenyl)-1-(3-(4-methylthienyl))prop-1-en-3-yl)sarcosine] | 0 | 0 | 0 | 0 | 0 | 0 | 0 | 0 | 0 | 
5 | Cc1cscc1/C(=C\CN(C)CC(=O)O)c1ccc(-c2ccsc2)cc1 [Compound G(x), (Z)-N-(1-(4-(3-Thienyl)phenyl)-1-(3-(4-methylthienyl))prop-1-en-3-yl)sarcosine] | 0 | 0 | 0 | 0 | 0 | 0 | 0 | 0 | 0 | 
